In data set [1] the test system is KPC1361 cells. Nature of the data set: MHC-I surface expression in Pikfyve-wildtype, Pikfyve-null, Atg5-null or Atg7-null cells. In kind it is cell-based, mouse. Particulars: on-target test. An excerpt: FIG. 1F (Left) is line graphs of flow cytometry measuring MHC-I surface expression in KPC1361 cells with or without Pikfyve KO, treated with DMSO, Bafilomycin, chloroquine, Apilimod, or ESK981; (Right) is bar graphs of quantification of flow cytometry measuring MHC-I surface expression in KPC1361 cells with or without Pikfyve KO, treated with DMSO, Bafilomycin, chloroquine, Apilimod, or ESK981.
FIG. 1G (Left) is a line graph of flow cytometry measuring MHC-I surface expression in KPC1361 cells with non-targeting single-guide RNA (control), or single-guide RNAs depleting Atg5 or Atg7, treated with DMSO or Apilimod; (Right) is a bar graph of quantification of flow cytometry measuring MHC-I surface expression in KPC1361 cells with non-targeting single-guide RNA (control), or single-guide RNAs depleting Atg5 or Atg7, treated with DMSO or Apilimod.
Cancer cells or the OVA-expressing cancer cells treated in vitro were harvested from dishes, resuspended in buffer MACS (PBS containing 2% FBS and 2 mM EDTA), and stained with Zombie NIR™ Fixable Viability kit (BioLegend: #423106) and fluorophore-conjugated antibody against MHC-I or PE-conjugated antibody against SIINFEKL bound H-2Kb (BioLegend; catalog #141604), respectively. The cells were next washed twice with 1 ml MACS and fixed with 2% paraformaldehyde in PBS for 15 minutes at room temperature. The cells were then subjected to the flow cytometer (SONY SH800S) for measuring surface expression of MHC-I or SIINFEKL bound H-2Kb, respectively. Antibodies used in this study include anti-H-2Kb (BD Biosciences; catalog #553570) and anti-H-2Db (28-14-8; Thermo Fisher Scientific; catalog #12-5999-82) for KPC1361 and B16-F10, anti-H-2Kd (BD Biosciences; catalog #562004) and anti-H-2Dd (BD Biosciences; catalog #553580) for 4T1, anti-H-2Kq (BD Biosciences; catalog #742296) and anti-H-2Dq/H-2Lq (BD Biosciences; catalog #744853) for MyC-CaP, and anti-HLA-A,B,C (clone w6/32; BioLegend; catalog #311406) for human cancer cells.

Data set [2] concerns subcutaneous B16F10 tumors. Nature of the data set: Subcutaneous B16F10 tumor model. In kind it is in vivo, mice. Here is the method: FIG. 15D is a line graph of the subcutaneous tumor volume of B16F10 tumors in PIKfyve KO mice or WT mice treated with anti-PD1 antibody, 200 μg every 3 days, or isotype control after 15 days.
FIG. 16D is a line graph of the subcutaneous tumor volume of B16F10 tumors in mice treated with vehicle or apilimod, 30 mg/kg daily, in wild-type or Batf3^−/− mice.
FIG. 26E is a line graph of the subcutaneous tumor volume of B16F10 tumors in mice treated with vehicle or apilimod, 30 mg/kg daily, in NSG™ mice.
FIG. 26F is a line graph of the subcutaneous tumor volume of B16F10 tumors in mice treated with vehicle versus apilimod, 30 mg/kg daily, in NSG™ mice.

For data set [3], the system named is B16F10-OVA tumors. Briefly: B16F10-OVA tumor model with PolyI:C adjuvant. Format: in vivo, mice. Here is the method:
FIG. 16F is a series of four line graphs of the Individual growth curves of subcutaneous B16F10-OVA tumor volume following 21 days of pre-treatment with vehicle versus apilimod, 30 mg/kg daily, with or without subcutaneous injection of water versus PolyI:C, 100 μg on Day 1 and Day 14.
FIG. 16H is a series of four line graphs of the Individual growth curves of subcutaneous B16F10-OVA tumor volume in mice treated with vehicle or apilimod, 30 mg/kg daily, with or without a subcutaneous injection of water versus PolyI:C, 100 μg once weekly.
FIG. 26I is a line graph of the subcutaneous tumor volume of B16F10-OVA tumors following 21 days of pre-treatment with vehicle versus apilimod, 30 mg/kg×5 days/week, with or without subcutaneous injection of water versus PolyI:C, 100 μg on Day 1 and Day 14.
FIG. 26J is a line graph of the subcutaneous tumor volume of B16F10-OVA tumors in mice treated with vehicle or apilimod, 30 mg/kg×5 days/week, with or without subcutaneous injection of water versus PolyI:C, 100 μg once weekly.

The conditions of data set [4]: reported, Ikonomov et al. 2019; cited from earlier work.

For `CC(C)Cn1c2ccc(Nc3ncccn3)cc2c2c3c(c4c(c21)CCc1nn(C)cc1-4)C(=O)NC3` [ESK981, 13-isobutyl-4-methyl-10-(pyrimidin-2-ylamino)-1,2,4,7,8,13-hexahydro-6H-indazolo[5,4-a]pyrrolo[3,4-c]carbazol-6-one], the “upregulation of MHC-I surface expression, Pikfyve-wildtype vs Pikfyve-null cells” value in data set [1] is “only observed in the wildtype cells but not Pikfyve-null cells”.
Take `Cc1cccc(/C=N/Nc2cc(N3CCOCC3)nc(OCCc3ccccn3)n2)c1` [apilimod, N-[(E)-(3-methylphenyl)methylideneamino]-6-morpholin-4-yl-2-(2-pyridin-2-ylethoxy)pyrimidin-4-amine]: in data set [2] (Batf3−/− mice), the “efficacy in Batf3−/− mice” value is given as “lost”. Moreover, in data set [2] (NSG mice), the “efficacy in NSG mice” value is given as “lost”. For the same compound, in data set [2] (WT, non-transgenic mice, vs vehicle), the B16F10 tumor growth result was “reduced”. The subsequent tumor growth entry in data set [3] (21 days pre-treatment, combination of apilimod and PolyI:C, vs control or either agent alone) is given as “decrease”. Also, in data set [3] (treatment after inoculation, combination of apilimod and PolyI:C), the tumor growth inhibition result was “further potentiated”. The tumor growth result in data set [3] (treatment after inoculation, each agent alone) is on record as “modest tumor growth inhibition”. Further, in data set [4], the stability entry is on record as “instability”. In addition, in data set [1], the “upregulation of MHC-I surface expression, Pikfyve-wildtype vs Pikfyve-null cells” value is “only observed in the wildtype cells but not Pikfyve-null cells”.
